Among the data in BindingDB's records for patent US20240400545 (Hangzhou Innogate Pharma, 2024) are IC50 values, retold here.

T1 sequence (Q92794 507-778): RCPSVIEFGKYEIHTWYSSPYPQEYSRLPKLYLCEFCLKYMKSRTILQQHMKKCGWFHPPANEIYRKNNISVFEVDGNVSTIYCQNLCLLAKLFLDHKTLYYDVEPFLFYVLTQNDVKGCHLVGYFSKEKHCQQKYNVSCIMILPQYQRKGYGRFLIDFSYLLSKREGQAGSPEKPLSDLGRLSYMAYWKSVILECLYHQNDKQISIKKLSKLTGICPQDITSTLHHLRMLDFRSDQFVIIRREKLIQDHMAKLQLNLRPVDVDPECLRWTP

The assay has as its target T1, Histone acetyltransferase KAT6A [507-778] (Homo sapiens, UniProt Q92794).
T1 construct: 507-778
Briefly: Inhibition of KAT6A Enzyme Activity Assay. Here is the method:
1× experimental buffer (modified Tris buffer) was prepared, and the compounds were dissolved with 100% DMSO to form 10 mM reservoir solution and diluted according to a certain concentration gradient. The compounds were transferred to a 384-well plate using an automatic sampler Echo, and the final concentration of DMSO was 1%. 1× KAT6A enzyme (catalytic domain) solution was prepared. A mixed solution of [3H]-acetyl-CoA (PERKIN ELMER, Cat. No. NET290250UC) and the substrate peptide H3 (1-21) was prepared. 10 μL of the enzyme solution was transferred to the 384-well plate and incubated at room temperature for 15 minutes. 10 μL of the mixed solution of [3H]-acetyl-CoA and the substrate peptide H3 (1-21) were added to the plate to initiate the reaction. The plate was incubated at room temperature for 1 hour. 10 μL of the stop solution was added to terminate the reaction. 25 μL of the reaction solution was transferred to a Flashplate (Perkin Elmer, Cat. No. SMP410A001PK) and incubated at room temperature for 1 hour. The plate was read using Microbeta. The inhibition rate of the compounds was calculated using the formula of Excel: inhibition %=(Max-Signal)/(Max−Min)*100%. Where max is the value of the DMSO control, min is the value of the non-enzymatic control, and signal is the value of the well where the compound was tested.
For orientation: IC50 means the concentration that inhibits the measured activity by half. A low value points to higher potency. `COc1ccc(N2CCOCC2)cc1S(=O)(=O)Nc1noc2cc(Cn3cccn3)cc(OC)c12` [US20240400545, Compound 6]: the concentration for half-maximal inhibition (IC50) was below 100 nM.
Compound `COc1cc(C#CC2CC2)cc(OC)c1S(=O)(=O)Nc1noc2cc(Cn3cccn3)cc(OC)c12` [US20240400545, Compound 10] had a concentration for half-maximal inhibition (IC50) below 5 nM.
The same measure for `COc1cc(C#CC2CN(C)C2)ccc1S(=O)(=O)Nc1noc2cc(Cn3cccn3)cc(OC)c12` [US20240400545, Compound 24]: below 20 nM; for `C#Cc1ccc(OC)c(S(=O)(=O)Nc2noc3cc(Cn4cccn4)cc(OC)c23)c1` [US20240400545, Compound 3]: below 20 nM; for `CC#Cc1ccc(OC)c(S(=O)(=O)Nc2noc3cc(Cn4cccn4)cc(OC)c23)c1` [US20240400545, Compound 13]: below 20 nM.
In the case of `C#Cc1ccc(S(=O)(=O)Nc2noc3cc(Cn4cccn4)cc(OC)c23)c(OC)c1` [US20240400545, Compound 11] it was below 10 nM; in that of `COc1cc(C#CC2CN(C)C2)cc(OC)c1S(=O)(=O)Nc1noc2cc(Cn3cccn3)cc(OC)c12` [US20240400545, Compound 22], below 20 nM; in that of `COc1cc(C#CC2CC(F)(F)C2)cc(OC)c1S(=O)(=O)Nc1noc2cc(Cn3cccn3)cc(OC)c12` [US20240400545, Compound 15], below 5 nM.
In the case of `CC#Cc1ccc(S(=O)(=O)Nc2noc3cc(Cn4cccn4)cc(OC)c23)c(OC)c1` [US20240400545, Compound 16] it was below 10 nM.
On to `COc1cc(C#CC2CN(C(=O)OC(C)(C)C)C2)cc(OC)c1S(=O)(=O)Nc1noc2cc(Cn3cccn3)cc(OC)c12` [US20240400545, Compound 20], for which the IC50 was below 5 nM.
The same measure for `COc1cc(C#Cc2cccnc2)cc(O)c1S(=O)(=O)Nc1noc2cc(Cn3cccn3)cc(OC)c12` [US20240400545, Compound 19']: below 10 nM; for `COc1ccc(C#CC2CC2)cc1S(=O)(=O)Nc1noc2cc(Cn3cccn3)cc(OC)c12` [US20240400545, Compound 7]: below 10 nM.
The same measure for `CC#Cc1cc(OC)c(S(=O)(=O)Nc2noc3cc(Cn4cccn4)cc(OC)c23)c(OC)c1` [US20240400545, Compound 9]: below 10 nM; for `COc1cc(C#Cc2cccnc2)cc(OC)c1S(=O)(=O)Nc1noc2cc(Cn3cccn3)cc(OC)c12` [US20240400545, Compound 19]: below 5 nM; for `CC#Cc1cccc(OC)c1S(=O)(=O)Nc1noc2cc(Cn3cccn3)cc(OC)c12` [US20240400545, Compound 23]: below 20 nM.
The same measure for `COc1ccc(C#CC2CC2)cc1S(=O)(=O)NC(=O)c1cc2ccc(N(C)C)cc2o1` [US20240400545, Compound 8]: below 1000 nM.
As to `COc1cc(C#CC2CC2)ccc1S(=O)(=O)Nc1noc2cc(Cn3cccn3)cc(OC)c12` [US20240400545, Compound 12], the IC50 is below 10 nM.
The same measure for `COc1ccc(N2CCN(C)CC2)cc1S(=O)(=O)Nc1noc2cc(Cn3cccn3)cc(OC)c12` [US20240400545, Compound 5]: below 200 nM.
The same measure for `COc1cc(C#CC2CNC2)cc(OC)c1S(=O)(=O)Nc1noc2cc(Cn3cccn3)cc(OC)c12` [US20240400545, Compound 21]: below 10 nM.
